Measured values published in ChEMBL document CHEMBL1201862, “PubChem BioAssay data set” (2004).
Calls of active or inactive are those of the source.

Tests used:
[1] = NIH3T3 cell viability loss – ATP luminescence, mouse fibroblasts, counter-screen, dose response (AID 2010); type: functional, cell-based;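 note: cells exposed to compound for about 90 hours before reading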
[2] = Trypanosoma cruzi growth suppression in host cells – NIH3T3 host cells, beta-gal luminescence, confirmation (AID 2044); type: functional, cell-based;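 note: intracellular parasites grown in NIH/3T3 mouse fibroblasts as host cells; luminescent beta-galactosidase reporter signal from transgenic T. cruzi replicating inside host cells; inhibitors lower the luminescence signal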
Cytochrome P450 2C19 = Cytochrome P450 2C19 (Homo sapiens, UniProt P33261); assay: Cytochrome panel assay with activity outcomes. Panel member name: p450-cyp2c19 Compounds with AC50 equal or less than 10 uM are considered active; type: functional
Cytochrome P450 2C19, sequence (P33261 whole entry): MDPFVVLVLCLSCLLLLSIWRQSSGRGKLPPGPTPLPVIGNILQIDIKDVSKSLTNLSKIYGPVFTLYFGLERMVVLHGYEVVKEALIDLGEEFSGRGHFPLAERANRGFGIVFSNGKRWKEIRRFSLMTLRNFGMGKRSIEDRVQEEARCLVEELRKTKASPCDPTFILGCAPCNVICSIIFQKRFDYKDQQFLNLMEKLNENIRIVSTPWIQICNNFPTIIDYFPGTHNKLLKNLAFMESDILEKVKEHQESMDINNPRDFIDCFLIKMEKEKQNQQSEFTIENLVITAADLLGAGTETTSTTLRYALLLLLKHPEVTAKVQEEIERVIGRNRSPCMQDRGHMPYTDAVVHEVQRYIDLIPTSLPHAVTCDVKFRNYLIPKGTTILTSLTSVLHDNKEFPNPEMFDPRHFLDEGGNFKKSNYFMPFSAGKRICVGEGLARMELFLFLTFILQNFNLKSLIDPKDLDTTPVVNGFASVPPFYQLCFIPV

For `CCN(C(=O)c1cc2c(O)nc3ccc(C)cc3c2s1)c1ccccc1C`, the EC50 [1] was > 60000 nM (not active) and the EC50 [2] was 857 nM (active).
For `COc1ccc(-c2cc(C3CCN(Cc4ccc([N+](=O)[O-])cc4)CC3)[nH]n2)cc1`, the EC50 [1] was > 60000 nM (not active) and the EC50 [2] was 1100 nM (active).
For `CCCCOc1ccc(-c2nnn(CC(=O)c3c[nH]c4ccccc34)n2)cc1`, the AC50 (Cytochrome P450 2C19; read-out: AC50) was 25100 nM (inconclusive).
For `CC(=O)Nc1ccc(-c2cc(-c3ccc(NC(C)=O)cc3)nc(-c3ccccc3)n2)cc1`, the AC50 (Cytochrome P450 2C19; read-out: AC50) was 1780 nM (inconclusive).
In the case of `CCOC(=O)c1cnc2ccc(OCC)cc2c1N1CCN(c2ccccc2OC)CC1`, the EC50 [1] is reported as > 60000 nM (not active) and the EC50 [2] is reported as 1190 nM (active).
In the case of `O=C(C1=C[C@H](C2CC2)C[C@H](OCc2ccc(CO)cc2)O1)N1CCN(Cc2ccccc2)CC1`, the EC50 [1] is reported as > 60000 nM (not active) and the EC50 [2] is reported as 541 nM (active).
In the case of `N#Cc1cc2ccccc2nc1SCC(=O)Nc1ccc(S(=O)(=O)N2CCCC2)cc1`, the EC50 [1] is reported as 9370 nM (active) and the EC50 [2] is reported as 2830 nM (active).
For `O=C1Nc2ccccc2Oc2cc([N+](=O)[O-])ccc21`, the EC50 [1] was 9780 nM (active) and the EC50 [2] was 1460 nM (active).
For `Cc1ccc(-c2nnc(Nc3ccc(CC(N)=O)cc3)c3ccccc23)cc1`, the EC50 [1] was > 60000 nM (not active) and the EC50 [2] was 208 nM (active).
With `O=C(c1ccc(-c2ccccc2)cc1)C1CCCN(Cc2ccncc2)C1` (configuration not stated) the EC50 [1] was > 60000 nM (not active) and the EC50 [2] was 1470 nM (active).
For `CN(C)CCCNC(=O)c1ccc(Cl)c(S(=O)(=O)N(C)c2ccccc2)c1`, the EC50 [1] was > 60000 nM (not active) and the EC50 [2] was 524 nM (active).
With `COC(=O)c1c(-c2ccccc2)csc1NC(=O)CSc1ncnc2sc(C)c(C)c12` the AC50 (Cytochrome P450 2C19; read-out: AC50) was 1000 nM (inconclusive).
With `CN(C)CCCN/C=C1/C(=O)N(Cc2ccc3c(c2)OCO3)C(=O)c2ccccc21` the EC50 [1] was 10100 nM (active) and the EC50 [2] was < 100 nM (active).
For `OC(COc1ccc(OCC(O)CN2CCN(Cc3ccccc3)CC2)cc1)CN1CCN(Cc2ccccc2)CC1` (configuration not stated), the EC50 [1] was > 60000 nM (not active) and the EC50 [2] was 789 nM (active).
For `CCN1CCN(Cc2cccc(Oc3ccccc3)c2)CC1`, the EC50 [1] was > 30000 nM (not active) and the EC50 [2] was 1440 nM (active).
In the case of `O=C(CN1C(=O)COc2ccccc21)N(Cc1cccnc1)Cc1ccccc1F`, the EC50 [1] is reported as > 60000 nM (not active) and the EC50 [2] is reported as 260 nM (active).
In the case of `COc1cccc(C(CC(=O)Nc2cccc3ccccc23)NC(=O)c2ccccc2)c1` (configuration not stated), the AC50 (Cytochrome P450 2C19; read-out: AC50) is reported as 631 nM (inconclusive).
With `COC(=O)Cn1nc(-c2ccccc2)n(-c2ccccc2)c1=S` the AC50 (Cytochrome P450 2C19; read-out: AC50) was 20000 nM (inconclusive).
For `CCc1ccc(C(=O)COC(=O)C(Cc2ccccc2)NC(=O)C2CCC(C)CC2)cc1` (configuration not stated), the AC50 (Cytochrome P450 2C19; read-out: AC50) was 70.8 nM (inconclusive).
With `CC(C)CN(C(=O)c1ccc([N+](=O)[O-])s1)c1c(N)n(Cc2ccccc2)c(=O)[nH]c1=O` the EC50 [1] was > 60000 nM (not active) and the EC50 [2] was 783 nM (active).
With `CCN(CC)CCN(C(=O)c1ccc2c(c1)OCCO2)c1nc2ccc(C)cc2s1` the EC50 [1] was > 60000 nM (not active) and the EC50 [2] was 457 nM (active).
In the case of `CCCCCNc1nc(-c2ccccc2)nc(-n2ccnc2)n1`, the EC50 [1] is reported as > 60000 nM (inconclusive) and the EC50 [2] is reported as 1550 nM (active).
With `Cc1[nH]n(-c2ccc(S(=O)(=O)O)cc2)c(=O)c1/N=N\c1ccccc1` the AC50 (Cytochrome P450 2C19) was “inconclusive”.
With `O=[N+]([O-])c1ccccc1/C=N/N1CCN(c2ccncc2S(=O)(=O)N2CCCCC2)CC1` the EC50 [1] was > 60000 nM (not active) and the EC50 [2] was 550 nM (active).
In the case of `O=C(Cn1ccnc1[N+](=O)[O-])NCCO` [ETANIDAZOLE], the AC50 (Cytochrome P450 2C19) is reported as “inconclusive”.
